Where a SMILES comes first, the peptide text is derived from it. [ ]: non-standard residue; d: D form. The star is where a group is joined. FITC = O=C1OC2(c3ccc(O)cc3Oc3cc(O)ccc32)c2ccc(NC(=S)*)cc21; Nle = CCCC[C@H](N)C(=O)O; βAla = NCCC(=O)O
Experiments:
[1] = 10 mg/kg FITC-conjugated peptide, one hour after injection
Experimental: Levels of intact FITC-compound in 25 μL of fresh serum were then measured.

[2] = tested on: Jurkat T-cell leukemia cells; experiment: Cellular uptake of FITC-peptides by FACS
From the text: BID helix 6, a cell permeable and membrane perturbing peptide, was used as a positive control for FITC-labeling in this experiment.

[3] = tested on: Jurkat T-cell leukemia cells; experiment: Confocal microscopy, intracellular localization; assay type: cell-based; settings: fixed cells
Experimental: Confocal microscopy experiments were employed in order to determine the intracellular localization of SAHB3BIDA. Jurkat T-cell leukemia cells were incubated with FITC-labeled compounds as described above or with serum replacement at 4 hours followed by additional 16 hours incubation at 37° C., and after washing twice with PBS, were cytospun at 600 RPM for 5 minutes onto superfrost plus glass slides (Fisher). Cells were then fixed in 4% paraformaldehyde, washed with PBS, incubated with TO-PRO-3 iodide (100 nM) (Molecular Probes) to counterstain nuclei, treated with Vectashield mounting medium (Vector), and then imaged by confocal microscopy (BioRad 1024). For double labeling experiments, fixed cells were additionally incubated with primary antibody to TOM20, and rhodamine-conjugated secondary antibody prior to TOPRO-3 counterstaining. […] Treated Jurkats were washed twice and then resuspended in PBS and wet mount preparations analyzed with a BioRad 1024 (Beth Israel/Deaconess Center for Advanced Microscopy) or Zeiss LSM510 laser scanning confocal microscope (Children's Hospital Boston Imaging Core).

[4] = tested on: purified mouse liver mitochondria; experiment: Cytochrome c release assay (ELISA), wild-type mitochondria; assay type: biochemical; settings: 30 nM
Experimental: In order to assess the biological activity of SAHB3BID compounds in vitro, cytochrome c release assays were performed using purified mouse liver mitochondria. Mitochondria (0.5 mg/mL) were incubated for 40 minutes with 1 μM and 100 nM of SAHB3BID compounds and then supernatants and mitochondrial fractions isolated and subjected to cytochrome c ELISA assay. Background cytochrome c release (10-15%) was subtracted from total release for each sample, and the percent actual cytochrome c release was determined (FIG. 12). […] In each case, except for the double cross-linked SAHB3BIDE (which may lack critical amino acids for biological activity or, in this case, be overly constrained by the dual cross-links), there is approximately a doubling of cytochrome c release in response to 1 μM SAHB3BID compounds compared to the unmodified peptide (FIG. 12a). […] BID mutants with defective BH3 domains can promote BAK-independent cytochrome c mobilization (Scorrano et al, Dev Cell, 2:55), and the highly hydrophobic BID helix 6 has been implicated in this activity (L. Scorrano, S. J. Korsmeyer, unpublished results).
Similar to the above experiment, mouse liver mitochondria from wild-type and Bak−/− mice were exposed to the compounds at various concentrations and assayed for cytochrome c release at 10 and 40 minute intervals. […] Thus, SAHB3BIDA and B display a 10-25 fold enhancement in cytochrome c release activity at the 40 minute time point.

CCCC[C@H](NC(=O)[C@H](CO)NC(=O)[C@H](CC(=O)O)NC(=O)CNC(=O)[C@@H](NC(=O)[C@H](CCC(N)=O)NC(=O)[C@H](C)NC(=O)[C@H](CC(C)C)NC(=O)[C@H](Cc1c[nH]cn1)NC(=O)[C@H](CCCNC(=N)N)NC(=O)[C@H](C)NC(=O)[C@@H](NC(=O)[C@H](CC(N)=O)NC(=O)[C@H](CCCNC(=N)N)NC(=O)[C@@H](NC(=O)[C@@H](NC(=O)[C@H](CC(=O)O)NC(=O)[C@@H](N)CCC(=O)O)[C@@H](C)CC)[C@@H](C)CC)[C@@H](C)CC)C(C)C)C(=O)N[C@@H](CC(=O)O)C(=O)N[C@@H](CCCNC(=N)N)C(=O)N[C@@H](CO)C(=O)N[C@H](C(=O)N[C@@H](Cc1c[nH]c2ccccc12)C(N)=O)[C@@H](C)CC [BID BH3, reference compound] (H-EDIIRNIARHLAQVGDS[Nle]DRSIW-NH2)
percent detectable in serum [1]: 12%

CCCC[C@H](NC(=O)[C@H](CO)NC(=O)[C@H](CC(=O)O)NC(=O)CNC(=O)[C@@H](NC(=O)[C@H](CCC(N)=O)NC(=O)[C@H](C)NC(=O)[C@H](CC(C)C)NC(=O)[C@H](Cc1c[nH]cn1)NC(=O)[C@H](CCCNC(=N)N)NC(=O)[C@H](C)NC(=O)[C@@H](NC(=O)[C@H](CC(N)=O)NC(=O)[C@H](CCCNC(=N)N)NC(=O)[C@@H](NC(=O)[C@@H](NC(=O)[C@H](CC(=O)O)NC(=O)[C@H](CCC(=O)O)NC(=O)CCNC(=S)Nc1ccc2c(c1)C(=O)OC21c2ccc(O)cc2Oc2cc(O)ccc21)[C@@H](C)CC)[C@@H](C)CC)[C@@H](C)CC)C(C)C)C(=O)N[C@@H](CC(=O)O)C(=O)N[C@@H](CCCNC(=N)N)C(=O)N[C@@H](CO)C(=O)N[C@H](C(=O)N[C@@H](Cc1c[nH]c2ccccc12)C(N)=O)[C@@H](C)CC [FITC-BID BH3] ({FITC-βAla}-EDIIRNIARHLAQVGDS[Nle]DRSIW-NH2)
FITC labeling of cells at 4° C. and 37° C. [2]: did not label the cells at either temperature | FITC labeling with or without sodium azide and 2-deoxyglucose [2]: no labeling for either condition | intracellular distribution of fluorescence [3]: no cellular labeling

B1: myristolated BID protein: maximally activated myristolated BID protein (protein, UniProt P55957 1-195, looked up)
BH3-interacting domain death …: MDCEVNNGSSLRDECITNLLVFGFLQSCSDNSFRRELDALGHELPVLAPQWEGYDELQTDGNRSSHSRLGRIEADSESQEDIIRNIARHLAQVGDSMDRSIPPGLVNGLALQLRNTSRSEEDRNRDLATALEQLLQAYPRDMEKEKTMLVLALLLAKKVASHTPSLLRDVFHTTVNFINQNLRTYVRSLARNGMD
modifications: myristoylated
cytochrome c released [4]: approximately 65%
